US11229623B2 (GlaxoSmithKline Intellectual Property (No.2) Limited, priority 2016, dated 2022)

molecular target: T1, human TRPV4 (Homo sapiens, UniProt Q9HBA0); test: FLIPR assay for hTRPV4 expressed in BHK cells: inhibition of Agonist Compound-induced calcium signal; format: cell-based; settings: IC50, hTRPV4 in BHK/AC9 cells, FLIPR calcium signal, agonist at EC80; reported as range class
T1 construct: expressed in transfected cells; host or cells: BHK/AC9 cells transduced with BacMam virus
Outline: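 BHK/AC9 cells transduced with BacMam human TRPV4 (MOI 78), plated 15,000 per well and cultured 24 h at 37° C. Loaded with 2 μM Fluo-4 AM plus 500 μM Brilliant Black in HBSS for 1-1.5 h at room temperature in the dark; intracellular calcium signal read by FLIPR fluorescence.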

T1 sequence (Q9HBA0 whole entry): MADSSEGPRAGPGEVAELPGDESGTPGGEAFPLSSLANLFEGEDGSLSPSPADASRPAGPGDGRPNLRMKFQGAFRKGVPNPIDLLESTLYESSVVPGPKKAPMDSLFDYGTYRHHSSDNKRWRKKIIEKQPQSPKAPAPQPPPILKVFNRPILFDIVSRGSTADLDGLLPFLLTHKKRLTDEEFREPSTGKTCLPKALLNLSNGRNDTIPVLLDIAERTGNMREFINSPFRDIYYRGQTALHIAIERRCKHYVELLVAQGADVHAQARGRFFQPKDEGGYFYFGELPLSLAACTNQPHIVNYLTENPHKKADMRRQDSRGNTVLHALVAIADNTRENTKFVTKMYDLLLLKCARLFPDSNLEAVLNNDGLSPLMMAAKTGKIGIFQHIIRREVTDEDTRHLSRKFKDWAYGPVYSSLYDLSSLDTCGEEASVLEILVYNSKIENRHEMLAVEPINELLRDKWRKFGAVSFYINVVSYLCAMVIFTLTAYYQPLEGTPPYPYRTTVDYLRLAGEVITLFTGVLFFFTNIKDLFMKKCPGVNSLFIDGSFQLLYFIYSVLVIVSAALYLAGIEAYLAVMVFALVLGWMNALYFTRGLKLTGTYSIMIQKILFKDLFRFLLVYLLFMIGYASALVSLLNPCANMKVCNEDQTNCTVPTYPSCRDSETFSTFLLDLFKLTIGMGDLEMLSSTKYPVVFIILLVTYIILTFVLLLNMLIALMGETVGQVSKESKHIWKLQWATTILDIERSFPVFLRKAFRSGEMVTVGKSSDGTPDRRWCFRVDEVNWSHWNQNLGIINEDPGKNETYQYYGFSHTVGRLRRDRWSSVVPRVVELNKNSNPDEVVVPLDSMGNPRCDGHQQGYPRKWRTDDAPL

Compound `C[Si](C)(C)C#Cc1ccc(S(=O)(=O)N2C[C@H](Oc3ccc(C#N)c(F)c3)[C@](O)(CO)C2)c(C#N)c1` [Example 221, 4-(((3S,4R)-1-((2-cyano-4-((trimethylsilyl)ethynyl)phenyl)sulfonyl)-4-hydroxy-4-(hydroxymethyl)pyrrolidin-3-yl)oxy)-2-fluorobenzonitrile] has an IC50 of 0.1 to 10 nM.

same assay, conditions: hTRPV4 in BHK/AC9 cells, FLIPR calcium signal, agonist at EC80; reported as range class; read-out: IC50

`C[C@H](O)[C@]1(O)CN(S(=O)(=O)c2ccc(Cl)cc2C#N)C[C@@H]1Oc1ccc(C#N)c(F)c1` [Example 202, 4-(((3S,4R)-1-((4-chloro-2-cyanophenyl)sulfonyl)-4-hydroxy-4-((S)-1-hydroxyethyl)pyrrolidin-3-yl)oxy)-2-fluorobenzonitrile] and `C[C@H](O)[C@]1(O)CN(S(=O)(=O)c2ccc(Cl)cc2Cl)C[C@@H]1Oc1ccc(C#N)c(F)c1` [Example 204, 4-(((3S,4R)-1-((2,4-dichlorophenyl)sulfonyl)-4-hydroxy-4-((S)-1-hydroxyethyl)pyrrolidin-3-yl)oxy)-2-fluorobenzonitrile] fall in the same range of IC50: 0.1 to 10 nM for the first, 0.1 to 10 nM for the second.

First: C[C@H](O)[C@]1(O)CN(S(=O)(=O)c2cccnc2C#N)C[C@@H]1Oc1ccc(C#N)c(F)c1 [Example 203, 3-(((3R,4S)-4-(4-cyano-3-fluorophenoxy)-3-hydroxy-3-((S)-1-hydroxyethyl)pyrrolidin-1-yl)sulfonyl) picolinonitrile]
Second: C[C@H](O)[C@]1(O)CN(S(=O)(=O)c2ccc(C#N)cc2Cl)C[C@@H]1Oc1ccc(C#N)c(F)c1 [Example 205, 4-(((3S,4R)-1-((2-chloro-4-cyanophenyl)sulfonyl)-4-hydroxy-4-((S)-1-hydroxyethyl)pyrrolidin-3-yl)oxy)-2-fluorobenzonitrile]
The IC50 of the first is higher: 10 to 100 nM for the first, 0.1 to 10 nM for the second. The second is the more potent here.

`C[C@@H](O)[C@]1(O)CN(S(=O)(=O)c2ccc(C(F)(F)F)nc2)C[C@@H]1Oc1ccc(C#N)c(F)c1` [Example 206, 2-fluoro-4-(((3S,4R)-4-hydroxy-4-((R)-1-hydroxyethyl)-1-((6-(trifluoromethyl)pyridin-3-yl)sulfonyl)pyrrolidin-3-yl)oxy)benzonitrile] and `C[C@@H](O)[C@]1(O)CN(S(=O)(=O)c2ccc(OC(F)(F)F)nc2)C[C@@H]1Oc1ccc(C#N)c(F)c1` [Example 208, 2-fluoro-4-(((3S,4R)-4-hydroxy-4-((R)-1-hydroxyethyl)-1-((6-(trifluoromethoxy)pyridin-3-yl)sulfonyl)pyrrolidin-3-yl)oxy)benzonitrile] fall in the same range of IC50: 10 to 100 nM for the first, 10 to 100 nM for the second.

`C[C@@H](O)[C@]1(O)CN(S(=O)(=O)c2ccc(F)cn2)C[C@@H]1Oc1ccc(C#N)c(F)c1` [Example 207, 2-fluoro-4-(((3S,4R)-1-((5-fluoropyridin-2-yl)sulfonyl)-4-hydroxy-4-((R)-1-hydroxyethyl)pyrrolidin-3-yl)oxy)benzonitrile] and `C[C@@H](O)[C@]1(O)CN(S(=O)(=O)c2ccc(C(F)F)cn2)C[C@@H]1Oc1ccc(C#N)c(F)c1` [Example 211, 4-(((3S,4R)-1-((5-(difluoromethyl)pyridin-2-yl)sulfonyl)-4-hydroxy-4-((R)-1-hydroxyethyl)pyrrolidin-3-yl)oxy)-2-fluorobenzonitrile] fall in the same range of IC50: 10 to 100 nM for the first, 10 to 100 nM for the second.

Compared with `C[C@@H](O)[C@]1(O)CN(S(=O)(=O)c2ccc(I)cc2)C[C@@H]1Oc1ccc(C#N)c(F)c1` [Example 209, 2-fluoro-4-(((3S,4R)-4-hydroxy-4-((R)-1-hydroxyethyl)-1-((4-iodophenyl)sulfonyl)pyrrolidin-3-yl)oxy)benzonitrile], `C[C@@H](O)[C@]1(O)CN(S(=O)(=O)c2ccc(C(F)F)nc2)C[C@@H]1Oc1ccc(C#N)c(F)c1` [Example 212, 4-(((3S,4R)-1-((6-(difluoromethyl)pyridin-3-yl)sulfonyl)-4-hydroxy-4-((R)-1-hydroxyethyl)pyrrolidin-3-yl)oxy)-2-fluorobenzonitrile] is higher in IC50: 0.1 to 10 nM for the first, 10 to 100 nM for the second.

`C[C@@H](O)[C@]1(O)CN(S(=O)(=O)c2ccc(OC(F)(F)F)cn2)C[C@@H]1Oc1ccc(C#N)c(F)c1` [Example 210, 2-fluoro-4-(((3S,4R)-4-hydroxy-4-((R)-1-hydroxyethyl)-1-((5-(trifluoromethoxy)pyridin-2-yl)sulfonyl)pyrrolidin-3-yl)oxy)benzonitrile] and `C[C@@H](O)[C@]1(O)CN(S(=O)(=O)c2ccc(OC(F)F)nc2)C[C@@H]1Oc1ccc(C#N)c(F)c1` [Example 213, 4-(((3S,4R)-1-((6-(difluoromethoxy)pyridin-3-yl)sulfonyl)-4-hydroxy-4-((R)-1-hydroxyethyl)pyrrolidin-3-yl)oxy)-2-fluorobenzonitrile] fall in the same range of IC50: 10 to 100 nM for the first, 10 to 100 nM for the second.

`CC(C)(O)[C@]1(O)CN(S(=O)(=O)c2ccc(Cl)cn2)C[C@@H]1Oc1ccc(C#N)c(F)c1` [Example 214, 4-(((3S,4S)-1-((5-chloropyridin-2-yl)sulfonyl)-4-hydroxy-4-(2-hydroxypropan-2-yl)pyrrolidin-3-yl)oxy)-2-fluorobenzonitrile] and `CC(C)(C)C#Cc1ccc(S(=O)(=O)N2C[C@H](Oc3ccc(C#N)c(F)c3)[C@](O)(CO)C2)nc1` [Example 229, 4-(((3S,4R)-1-((5-(3,3-dimethylbut-1-yn-1-yl)pyridin-2-yl)sulfonyl)-4-hydroxy-4-(hydroxymethyl)pyrrolidin-3-yl)oxy)-2-fluorobenzonitrile] fall in the same range of IC50: 10 to 100 nM for the first, 10 to 100 nM for the second.

`N#Cc1cc(OCC(F)(F)F)c(O[C@H]2CN(S(=O)(=O)c3ccc(Cl)cn3)C[C@]2(O)CO)cc1F` [Example 215, 4-(((3S,4S)-1-((5-chloropyridin-2-yl)sulfonyl)-4-hydroxy-4-(hydroxymethyl)pyrrolidin-3-yl)oxy)-2-fluoro-5-(2,2,2-trifluoroethoxy)benzonitrile] and `C#Cc1ccc(S(=O)(=O)N2C[C@H](Oc3ccc(C#N)c(F)c3)[C@](O)(CO)C2)nc1` [Example 228, 4-(((3S,4R)-1-((5-ethynylpyridin-2-yl)sulfonyl)-4-hydroxy-4-(hydroxymethyl)pyrrolidin-3-yl)oxy)-2-fluorobenzonitrile] fall in the same range of IC50: 10 to 100 nM for the first, 10 to 100 nM for the second.

`Cc1ccc(S(=O)(=O)N2C[C@H](Oc3ccc(C#N)c(F)c3)[C@](O)(CO)C2)c(C#N)c1` [Example 216, 4-(((3S,4R)-1-((2-cyano-4-methylphenyl)sulfonyl)-4-hydroxy-4-(hydroxymethyl)pyrrolidin-3-yl)oxy)-2-fluorobenzonitrile] and `CCc1ccc(S(=O)(=O)N2C[C@H](Oc3ccc(C#N)c(F)c3)[C@](O)(CO)C2)c(C#N)c1` [Example 217, 4-(((3S,4R)-1-((2-cyano-4-ethylphenyl)sulfonyl)-4-hydroxy-4-(hydroxymethyl)pyrrolidin-3-yl)oxy)-2-fluorobenzonitrile] fall in the same range of IC50: 0.1 to 10 nM for the first, 0.1 to 10 nM for the second.

Compared with `N#Cc1ccc(O[C@H]2CN(S(=O)(=O)c3ccc(-c4ccccc4)cc3C#N)C[C@@]2(O)CO)cc1F` [Example 218, 4-(((3R,4S)-4-(4-cyano-3-fluorophenoxy)-3-hydroxy-3-(hydroxymethyl)pyrrolidin-1-yl)sulfonyl)-[1,1′-biphenyl]-3-carbonitrile], `C#Cc1ccc(S(=O)(=O)N2C[C@H](Oc3ccc(C#N)c(F)c3)[C@](O)(CO)C2)c(C#N)c1` [Example 220, 4-(((3S,4R)-1-((2-cyano-4-ethynylphenyl)sulfonyl)-4-hydroxy-4-(hydroxymethyl)pyrrolidin-3-yl)oxy)-2-fluorobenzonitrile] is lower in IC50: 10 to 100 nM for the first, 0.1 to 10 nM for the second.

Compared with `CC#Cc1ccc(S(=O)(=O)N2C[C@H](Oc3ccc(C#N)c(F)c3)[C@](O)(CO)C2)c(C#N)c1` [Example 219, 4-(((3S,4R)-1-((2-cyano-4-(prop-1-yn-1-yl)phenyl)sulfonyl)-4-hydroxy-4-(hydroxymethyl)pyrrolidin-3-yl)oxy)-2-fluorobenzonitrile], `CC#Cc1cc(C#N)ccc1S(=O)(=O)N1C[C@H](Oc2ccc(C#N)c(F)c2)[C@](O)(CO)C1` [Example 224, 4-(((3S,4R)-1-((4-cyano-2-(prop-1-yn-1-yl)phenyl)sulfonyl)-4-hydroxy-4-(hydroxymethyl)pyrrolidin-3-yl)oxy)-2-fluorobenzonitrile] is higher in IC50: 0.1 to 10 nM for the first, 10 to 100 nM for the second. The first is the more potent here.

First: CC#Cc1ccc(S(=O)(=O)N2C[C@H](Oc3ccc(C#N)c(F)c3)[C@](O)(CO)C2)cc1 [Example 222, 2-fluoro-4-(((3S,4R)-4-hydroxy-4-(hydroxymethyl)-1-((4-(prop-1-yn-1-yl)phenyl)sulfonyl)pyrrolidin-3-yl)oxy)benzonitrile]
Second: CC#Cc1ccc(S(=O)(=O)N2C[C@H](Oc3ccc(C#N)c(F)c3)[C@](O)(CO)C2)cn1 [Example 223, 2-fluoro-4-(((3S,4R)-4-hydroxy-4-(hydroxymethyl)-1-((6-(prop-1-yn-1-yl)pyridin-3-yl)sulfonyl)pyrrolidin-3-yl)oxy)benzonitrile]
The IC50 of the first is lower: 0.1 to 10 nM for the first, 10 to 100 nM for the second.

`C#Cc1cc(C(F)(F)F)ccc1S(=O)(=O)N1C[C@H](Oc2ccc(C#N)c(F)c2)[C@](O)(CO)C1` [Example 225, 4-(((3S,4R)-1-((2-ethynyl-4-(trifluoromethyl)phenyl)sulfonyl)-4-hydroxy-4-(hydroxymethyl)pyrrolidin-3-yl)oxy)-2-fluorobenzonitrile] and `CC#Cc1ccc(S(=O)(=O)N2C[C@H](Oc3ccc(C#N)c(F)c3)[C@](O)(CO)C2)nc1` [Example 227, 2-fluoro-4-(((3S,4R)-4-hydroxy-4-(hydroxymethyl)-1-((5-(prop-1-yn-1-yl)pyridin-2-yl)sulfonyl)pyrrolidin-3-yl)oxy)benzonitrile] fall in the same range of IC50: 0.1 to 10 nM for the first, 0.1 to 10 nM for the second.

First: N#Cc1ccc(O[C@H]2CN(S(=O)(=O)c3ccc(C#CC4CC4)nc3)C[C@@]2(O)CO)cc1F [Example 226, 4-(((3S,4R)-1-((6-(cyclopropylethynyl)pyridin-3-yl)sulfonyl)-4-hydroxy-4-(hydroxymethyl)pyrrolidin-3-yl)oxy)-2-fluorobenzonitrile]
Second: N#Cc1ccc(O[C@H]2CN(S(=O)(=O)c3ccc(C#Cc4ccccc4)cn3)C[C@@]2(O)CO)cc1F [Example 230, 2-fluoro-4-(((3S,4R)-4-hydroxy-4-(hydroxymethyl)-1-((5-(phenylethynyl)pyridin-2-yl)sulfonyl)pyrrolidin-3-yl)oxy)benzonitrile]
The IC50 of the first is higher: 10 to 100 nM for the first, 0.1 to 10 nM for the second.
